Data as given in US7977284B2, “Non-estrogenic alkylphenol derivatives” (Oil Chem Technologies, Inc, priority 2009, dated 2011).

Tests used:
estrogenicity = conditions: Jobling and Sumpter 1993; cited from earlier work
[1] = system: vitellogenin gene expression in trout hepatocytes; test: Relative estrogenicity compared to estradiol; standard test procedure and stimulation of vitellogenin gene expression in trout hepatocytes; conditions: for Relative Estrogenicity: compared to estradiol, assigned an estrogenicity value of unity; for estrogenicity (result in words): standard test procedure, vitellogenin gene expression in trout hepatocytes

CC(C)(C)c1ccc(O)cc1 [4-t-butylphenol]
times less estrogenic compared to Estradiol (estrogenicity): 1,100 times

CC(C)(C)CC(C)(C)c1ccc(O)cc1 [4-t-octylphenol]
Relative Estrogenicity [1]: 0.00037 | estrogenicity (result in words) [1]: relatively high estrogenicity | times less estrogenic compared to Estradiol (estrogenicity): 1,200 times

C[C@]12CC[C@@H]3c4ccc(O)cc4CC[C@H]3[C@@H]1CC[C@@H]2O [Estradiol]
Relative Estrogenicity [1]: 1

nonylphenol
Relative Estrogenicity [1]: 0.000111 | estrogenicity (result in words) [1]: relatively high estrogenicity | times less estrogenic compared to Estradiol (estrogenicity): 9,000 times
